Data taken from PubChem BioAssay (NCI).
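48-hour exposure; five concentrations; linearly interpolated endpoints. GI50 is the concentration that inhibits growth by half. TGI: concentration producing complete growth inhibition.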

How the values were obtained:
Test in all cases: NCI-60 cell line screen, 48 h
[1] = test system: OVCAR-5 ovarian
[2] = test system: SN12C renal
[3] = test system: UO-31 renal
[4] = test system: HS 578T breast
[5] = test system: PC-3 prostate
[6] = test system: ACHN renal
[7] = test system: NCI/ADR-RES ovarian
[8] = test system: OVCAR-4 ovarian
[9] = test system: SF-539 CNS
[10] = test system: NCI-H226 lung
[11] = test system: CCRF-CEM leukemia
[12] = test system: HT29 colon
[13] = test system: NCI-H522 lung
[14] = test system: SK-OV-3 ovarian
[15] = test system: HCC-2998 colon
[16] = test system: SNB-19 CNS
[17] = test system: U251 CNS
[18] = test system: RXF 393 renal
[19] = test system: HCT-116 colon
[20] = test system: OVCAR-3 ovarian
[21] = test system: SF-268 CNS
[22] = test system: HOP-92 NSCLC
[23] = test system: KM12 colon
[24] = test system: IGROV1 ovarian
[25] = test system: MDA-MB-231 breast
[26] = test system: SK-MEL-28 melanoma
[27] = test system: SW-620 colon
[28] = test system: MALME-3M melanoma
[29] = test system: MDA-MB-435
[30] = test system: MOLT-4 leukemia
[31] = test system: BT-549 breast
[32] = test system: COLO 205 colon
[33] = test system: A498 renal
[34] = test system: NCI-H460 lung
[35] = test system: HL-60(TB) leukemia
[36] = test system: SNB-75 CNS
[37] = test system: SF-295 CNS
[38] = test system: EKVX NSCLC
[39] = test system: UACC-257 melanoma
[40] = test system: LOX IMVI melanoma
[41] = test system: SK-MEL-5 melanoma
[42] = test system: T-47D breast
[43] = test system: HOP-62 NSCLC
[44] = test system: UACC-62 melanoma
[45] = test system: OVCAR-8 ovarian
[46] = test system: HCT-15 colon
[47] = test system: MCF7 breast
[48] = test system: TK-10 renal
[49] = test system: DU-145 prostate
[50] = test system: 786-0 renal
[51] = test system: CAKI-1 renal
[52] = test system: SK-MEL-2 melanoma
[53] = test system: A549 NSCLC
[54] = test system: M14 melanoma
[55] = test system: RPMI-8226 leukemia
[56] = test system: K-562 leukemia
[57] = test system: NCI-H23 lung

Nc1ncnc2c1ncn2Cc1ccc(C23CC4CC(CC(C4)C2)C3)c(O)c1
GI50 [1]: > 100 µM
TGI [1]: > 100 µM
GI50 [2]: 36.9 µM
TGI [2]: > 100 µM
GI50 [3]: 90 µM
TGI [3]: > 100 µM
GI50 [4]: 10.7 µM
TGI [4]: 69.7 µM
GI50 [5]: 8.36 µM
TGI [5]: 96.3 µM
GI50 [6]: 15.6 µM
TGI [6]: > 100 µM
GI50 [7]: > 100 µM
TGI [7]: > 100 µM
GI50 [8]: 2.71 µM
TGI [8]: 8.66 µM
GI50 [9]: 23.4 µM
TGI [9]: 75.1 µM
GI50 [10]: > 100 µM
TGI [10]: > 100 µM
GI50 [11]: 3.97 µM
TGI [11]: > 100 µM
GI50 [12]: 15.1 µM
TGI [12]: > 100 µM
GI50 [13]: 25.6 µM
TGI [13]: > 100 µM
GI50 [14]: 36.3 µM
TGI [14]: > 100 µM
GI50 [15]: 12.4 µM
TGI [15]: 82.1 µM
GI50 [16]: 30.3 µM
TGI [16]: > 100 µM
GI50 [17]: 14.8 µM
TGI [17]: 32.6 µM
GI50 [18]: 8.06 µM
TGI [18]: 39.7 µM
GI50 [19]: 8.91 µM
TGI [19]: > 100 µM
GI50 [20]: 17.2 µM
TGI [20]: > 100 µM
GI50 [21]: 21.1 µM
TGI [21]: > 100 µM
GI50 [22]: 16.4 µM
TGI [22]: 37.5 µM
GI50 [23]: 13.7 µM
TGI [23]: > 100 µM
GI50 [24]: 27.2 µM
TGI [24]: > 100 µM
GI50 [25]: 13.6 µM
TGI [25]: 63.1 µM
GI50 [26]: 18.9 µM
TGI [26]: > 100 µM
GI50 [27]: 48.7 µM
TGI [27]: > 100 µM
GI50 [28]: 12.6 µM
TGI [28]: > 100 µM
GI50 [29]: 15 µM
TGI [29]: > 100 µM
GI50 [30]: 6.72 µM
TGI [30]: > 100 µM
GI50 [31]: 23.5 µM
TGI [31]: > 100 µM
GI50 [32]: 29.1 µM
TGI [32]: > 100 µM
GI50 [33]: 15.8 µM
TGI [33]: 49.8 µM
GI50 [34]: 11.8 µM
TGI [34]: > 100 µM
GI50 [35]: 5.06 µM
TGI [35]: > 100 µM
GI50 [36]: 13.4 µM
TGI [36]: 40 µM
GI50 [37]: 18.3 µM
TGI [37]: > 100 µM
GI50 [38]: 33.4 µM
TGI [38]: > 100 µM
GI50 [39]: 3.39 µM
TGI [39]: 61.2 µM
GI50 [40]: 24.6 µM
TGI [40]: > 100 µM
GI50 [41]: 4.02 µM
TGI [41]: 88.2 µM
GI50 [42]: 58.7 µM
TGI [42]: > 100 µM
GI50 [43]: 9.06 µM
TGI [43]: 34.6 µM
GI50 [44]: 31.8 µM
TGI [44]: > 100 µM
GI50 [45]: 17.5 µM
TGI [45]: > 100 µM
GI50 [46]: 58.6 µM
TGI [46]: > 100 µM
GI50 [47]: 17.4 µM
TGI [47]: > 100 µM
GI50 [48]: 7.24 µM
TGI [48]: 50.2 µM
GI50 [49]: 27.3 µM
TGI [49]: > 100 µM
GI50 [50]: 25.6 µM
TGI [50]: > 100 µM
GI50 [51]: 8.14 µM
TGI [51]: 37.5 µM
GI50 [52]: > 100 µM
TGI [52]: > 100 µM
GI50 [53]: 6.52 µM
TGI [53]: 77.4 µM

Cn1cc(-c2nn3cc(-c4cccs4)nc3s2)c2cc(F)ccc21
GI50 [1]: 8.24 µM
TGI [1]: 84.4 µM
GI50 [2]: 4.71 µM
TGI [2]: > 100 µM
GI50 [3]: 1.72 µM
TGI [3]: > 100 µM
GI50 [4]: 2.34 µM
TGI [4]: 13.4 µM
GI50 [5]: 3.19 µM
TGI [5]: > 100 µM
GI50 [6]: 3.39 µM
TGI [6]: 86.8 µM
GI50 [7]: 0.991 µM
TGI [7]: 19.1 µM
GI50 [8]: 5.77 µM
TGI [8]: > 100 µM
GI50 [9]: 2.18 µM
TGI [9]: 7.54 µM
GI50 [10]: 4.56 µM
TGI [10]: 35.8 µM
GI50 [11]: 2.54 µM
TGI [11]: > 100 µM
GI50 [54]: 1.05 µM
TGI [54]: > 100 µM
GI50 [12]: 0.477 µM
TGI [12]: 14.8 µM
GI50 [13]: 1.62 µM
TGI [13]: 24.5 µM
GI50 [14]: 3.47 µM
TGI [14]: 70.9 µM
GI50 [15]: 5.64 µM
TGI [15]: 33.9 µM
GI50 [16]: 3.44 µM
TGI [16]: > 100 µM
GI50 [17]: 2.76 µM
TGI [17]: 17.9 µM
GI50 [18]: 1.59 µM
TGI [18]: 5.73 µM
GI50 [19]: 2.04 µM
TGI [19]: 26.4 µM
GI50 [20]: 2.06 µM
TGI [20]: 9.67 µM
GI50 [21]: 6.58 µM
TGI [21]: > 100 µM
GI50 [22]: 12.2 µM
TGI [22]: 76.9 µM
GI50 [23]: 1.04 µM
TGI [23]: > 100 µM
GI50 [24]: 1.93 µM
TGI [24]: > 100 µM
GI50 [55]: 3.01 µM
TGI [55]: 26.5 µM
GI50 [25]: 3.23 µM
TGI [25]: 30.6 µM
GI50 [26]: 7.23 µM
TGI [26]: > 100 µM
GI50 [27]: 0.478 µM
TGI [27]: > 100 µM
GI50 [28]: 1.81 µM
TGI [28]: 31.6 µM
GI50 [56]: 0.451 µM
TGI [56]: > 100 µM
GI50 [29]: 0.293 µM
TGI [29]: 1.13 µM
GI50 [31]: 5.54 µM
TGI [31]: 77.4 µM
GI50 [33]: 4.09 µM
TGI [33]: 50 µM
GI50 [34]: 1.73 µM
TGI [34]: 17.1 µM
GI50 [35]: 1.34 µM
TGI [35]: 15.5 µM
GI50 [36]: 1.29 µM
TGI [36]: 6.45 µM
GI50 [37]: 2.24 µM
TGI [37]: 9.39 µM
GI50 [38]: 2.51 µM
TGI [38]: > 100 µM
GI50 [39]: 7.9 µM
TGI [39]: > 100 µM
GI50 [57]: 3.82 µM
TGI [57]: > 100 µM
GI50 [41]: 1.8 µM
TGI [41]: 12.9 µM
GI50 [43]: 1.92 µM
TGI [43]: 23.1 µM
GI50 [44]: 1.93 µM
TGI [44]: > 100 µM
GI50 [45]: 4.53 µM
TGI [45]: > 100 µM
GI50 [46]: 0.606 µM
TGI [46]: > 100 µM
GI50 [47]: 0.836 µM
TGI [47]: 30 µM
GI50 [48]: 4.92 µM
TGI [48]: 19.4 µM
GI50 [49]: 3.67 µM
TGI [49]: 31.6 µM
GI50 [50]: 7.62 µM
TGI [50]: 52.3 µM
GI50 [51]: 2.42 µM
TGI [51]: 57.4 µM
GI50 [52]: 1.59 µM
TGI [52]: 7.29 µM
GI50 [53]: 2.85 µM
TGI [53]: 95.6 µM

CC(C)(C)c1cc(C(=O)Nc2cc3ccccc3cc2C(=O)NCCN)cc(C(C)(C)C)c1
GI50 [4]: 1.65 µM
TGI [4]: 4.57 µM
GI50 [8]: 1.24 µM
TGI [8]: 2.7 µM
GI50 [22]: 0.146 µM
TGI [22]: 0.396 µM
GI50 [39]: 2.35 µM
TGI [39]: 4.98 µM
GI50 [41]: 1.65 µM
TGI [41]: 3.17 µM
GI50 [49]: 0.374 µM
TGI [49]: 1.29 µM
GI50 [51]: 1.13 µM
TGI [51]: 2.44 µM
